Test results taken from patent US9751882B2, “Diaryl[A, G]quinolizidine compound, preparation method therefor, pharmaceutical composition, and uses thereof” (SHANGHAI INSTITUTE OF MATERIA MEDICA, CHINESE ACADEMY OF …, priority 2012, dated 2017).

How the values were obtained:
[1] = target: T1, 5-HT1A receptor (Homo sapiens, UniProt P08908); assay: Radioligand binding affinity on 5-HT1A receptor ([3H]8-OH-DPAT); details: 5-HT1A receptor protein expressed in HEK-293 cells
T1 sequence (P08908 1-422): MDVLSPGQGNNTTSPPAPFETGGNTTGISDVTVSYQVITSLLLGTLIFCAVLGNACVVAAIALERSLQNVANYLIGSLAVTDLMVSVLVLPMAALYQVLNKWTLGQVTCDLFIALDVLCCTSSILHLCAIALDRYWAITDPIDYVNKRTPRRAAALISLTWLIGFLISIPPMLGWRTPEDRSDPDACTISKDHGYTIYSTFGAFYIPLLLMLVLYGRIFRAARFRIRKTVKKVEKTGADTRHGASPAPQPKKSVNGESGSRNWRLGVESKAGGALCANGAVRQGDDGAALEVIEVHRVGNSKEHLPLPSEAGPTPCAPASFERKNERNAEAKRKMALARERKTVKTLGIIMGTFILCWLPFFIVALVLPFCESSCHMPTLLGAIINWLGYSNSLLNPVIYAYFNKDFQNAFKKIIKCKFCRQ
Procedure: (§1) (1) Determination of the affinity of the diarylo[a,g]quinolizines of formula (I) and derivatives thereof on dopamine D1, dopamine D2, 5-HT1A and 5-HT2A receptors.
(§2) The compound of the invention at different concentrations (10^−5 M-10^−11 M), an isotope receptor ligand and a receptor protein were loaded into a reaction tube, incubated at 30° C. in a water bath for 60 min, and then terminated in a refrigerator. The mixture was filtered through suction filtration using GF/C glass fiber paper on a Millipore filter (millipore) cell sample collector, and dried. The resulting sample was placed into a 0.5 mL tube, added with 500 μL of liquid scintillation fluid, and counted for measuring the intensity of radioativity.
For 5-HT1A receptor: isotope receptor ligand [3H]8-OH-DPAT; 5-HT1A receptor protein expressed in HEK-293 cells;
(§3) Firstly, the above […] were dissolved in DMSO and then diluted with double distilled water to the appropriate concentration (10^−5 M-10^−11 M).
(§4) (+) Butaclamo was purchased from RBI Company, GF/C glass fiber filter paper was purchased from Whatman Co., liquid scintillation fluid (dopamine D1, D2 receptors)/liposoluble scintillation fluid (5-HT1A. 5-HT2A receptor), Beckman LS-6500 multi-function liquid scintillation counter.

[2] = target: T2, 5-HT2A receptor (Homo sapiens, UniProt P28223); assay: Radioligand binding affinity on 5-HT2A receptor ([3H]-Ketanserin); details: 5-HT2A receptor protein expressed in HEK-293 cells
T2 construct: expressed in transfected cells; host or cells: HEK-293
T2 sequence (P28223 whole entry): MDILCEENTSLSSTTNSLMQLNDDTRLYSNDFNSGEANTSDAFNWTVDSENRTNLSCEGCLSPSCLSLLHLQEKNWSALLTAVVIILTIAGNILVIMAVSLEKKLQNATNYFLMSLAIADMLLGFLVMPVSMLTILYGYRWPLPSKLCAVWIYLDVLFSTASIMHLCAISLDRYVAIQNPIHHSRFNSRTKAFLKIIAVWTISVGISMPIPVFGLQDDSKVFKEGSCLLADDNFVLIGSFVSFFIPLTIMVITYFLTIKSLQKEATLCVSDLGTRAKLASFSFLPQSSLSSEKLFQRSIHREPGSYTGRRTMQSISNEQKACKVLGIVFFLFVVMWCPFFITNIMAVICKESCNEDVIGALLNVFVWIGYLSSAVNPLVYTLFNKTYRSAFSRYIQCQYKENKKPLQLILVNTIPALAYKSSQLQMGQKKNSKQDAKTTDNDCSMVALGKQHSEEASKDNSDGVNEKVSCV
Procedure: as §1, §2
For 5-HT2A receptor: isotope receptor ligand [3H]-Ketanserin; 5-HT2A receptor protein expressed in HEK-293 cells;
as §3, §4

[3] = target: dopamine D1 receptor (Macaca mulatta, UniProt O77680); assay: Radioligand binding affinity on dopamine D1 receptor ([3H]-SCH23390); details: D1 receptor protein expressed in HEK-293 cells
Chain of dopamine D1 receptor (O77680 whole entry): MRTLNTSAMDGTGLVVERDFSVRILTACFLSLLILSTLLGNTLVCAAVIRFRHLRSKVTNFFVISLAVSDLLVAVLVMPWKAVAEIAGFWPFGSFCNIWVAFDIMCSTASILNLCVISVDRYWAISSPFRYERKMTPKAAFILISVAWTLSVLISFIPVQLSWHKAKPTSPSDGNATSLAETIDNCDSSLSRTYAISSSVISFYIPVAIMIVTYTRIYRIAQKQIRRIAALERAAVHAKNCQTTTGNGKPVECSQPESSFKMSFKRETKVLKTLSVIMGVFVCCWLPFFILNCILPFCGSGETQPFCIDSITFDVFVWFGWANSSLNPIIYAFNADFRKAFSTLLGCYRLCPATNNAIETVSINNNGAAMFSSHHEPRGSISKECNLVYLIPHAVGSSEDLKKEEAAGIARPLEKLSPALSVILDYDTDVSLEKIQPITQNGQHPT
Procedure: as §2, §3, §4

[4] = target: dopamine D2 receptor (Rattus norvegicus, UniProt P61169); assay: Radioligand binding affinity on dopamine D2 receptor ([3H]Spiperone); details: D2 receptor protein expressed in HEK-293 cells
Chain of dopamine D2 receptor (P61169 whole entry): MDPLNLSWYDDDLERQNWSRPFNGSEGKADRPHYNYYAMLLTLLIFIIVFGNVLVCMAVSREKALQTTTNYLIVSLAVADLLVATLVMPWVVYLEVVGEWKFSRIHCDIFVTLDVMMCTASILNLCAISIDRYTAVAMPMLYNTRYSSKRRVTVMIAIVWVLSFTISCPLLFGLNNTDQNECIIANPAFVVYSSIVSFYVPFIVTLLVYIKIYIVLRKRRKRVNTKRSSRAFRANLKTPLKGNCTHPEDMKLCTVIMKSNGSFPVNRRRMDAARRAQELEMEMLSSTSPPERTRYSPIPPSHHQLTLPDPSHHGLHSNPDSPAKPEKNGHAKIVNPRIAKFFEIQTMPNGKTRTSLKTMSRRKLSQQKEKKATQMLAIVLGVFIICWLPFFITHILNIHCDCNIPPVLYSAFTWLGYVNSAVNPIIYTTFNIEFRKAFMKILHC
Procedure: as §2, §3, §4

Row | Structure (SMILES) | 5-HT1A receptor inhibition % [1] [%] | 5-HT2A receptor inhibition % [2] [%] | D1 receptor inhibition % [3] [%] | IC50 [3] [nM] | Ki [3] [nM] | IC50 [1] [nM] | Ki [1] [nM] | D2 receptor inhibition % [4] [%] | IC50 [4] [nM] | Ki [4] [nM] | IC50 [2] [nM] | Ki [2] [nM]
1 | COc1cc2c(cc1O)[C@@H]1Cc3sc(CC(C)C)cc3CN1CC2 [DS006, (S)-2-hydroxy-3-methoxy-10-(2-methylpropyl)-5,8, 12,12a-tetrahydro-6H-benzo[a]thieno[3,2-g]quinolizine] | 83.71 | 50.31 |  |  |  |  |  |  |  |  |  | 
2 | CCCc1cc2c(s1)C[C@H]1c3cc(O)c(OC)cc3CCN1C2 [DS005, (S)-2-hydroxy-3-methoxy-10-n-propyl-5,8,12,12a-tetrahydro-6H-benzo[a]thieno[3,2-g]quinolizine] | 85.33 | 29.55 | 96.74 | 113 ± 12.6 | 61.7 ± 6.88 | 2460 ± 286 | 1970 ± 229 | 96.31 | 171 ± 9.5 | 38.6 ± 2.15 |  | 
3 | COc1cc2c(cc1O)[C@@H]1Cc3sc(CCCl)cc3CN1CC2 [DS013, (S)-2-hydroxy-3-methoxy-10-(2-chloroethyl)-5,8,12, 12a-tetrahydro-6H-benzo[a]thieno[3,2-g]quinolizine] | 89.84 | 34.81 | 98.64 |  | 16.4 ± 2.81 | 692 ± 102 | 553 ± 81.6 | 98.37 | 146 ± 7.19 | 34.4 ± 2.72 |  | 
4 | COc1cc2c(cc1O)[C@@H]1Cc3sc(CCCCCl)cc3CN1CC2 [DS016, (S)-2-hydroxy-3-methoxy-10-(4-chlorobutyl)-5,8,12, 12a-tetrahydro-6H-benzo[a]thieno[3,2-g]quinolizine] |  |  | 95.84 | 297 ± 20.1 | 158 ± 10.7 |  |  | 93.54 | 150 ± 23.4 | 49.9 ± 7.8 |  | 
5 | CCc1cc2c(s1)C[C@H]1c3cc(O)c(OC)cc3CCN1C2 [DS003, (S)-2-hydroxy-3-methoxy-10-ethyl-5,8,12,12a-tetrahydro-6H-benzo[a]thieno[3,2-g]quinolizine] | 92.10 | 45.15 | 98.16 | 48.1 ± 0.68 | 26.3 ± 0.37 | 1250 ± 237 | 998 ± 190 | 98.50 | 180 ± 16.8 | 40.8 ± 3.8 |  | 
6 | COc1c(O)ccc2c1CN1CCc3sc(C)cc3[C@H]1C2 [AS004, (R)-2-methyl-8-methoxy-9-hydroxy-4,7,12,12a-tetrahydro-5H-benzo[g]thieno[3,2-a]quinolizine] | 51.69 | 44.24 | 86.32 | 230 ± 44.8 | 115 ± 22.4 |  |  | 6.97 |  |  |  | 
7 | COc1cc2c(cc1OC)CN1CCc3c([nH]c4ccccc34)[C@@H]1C2 [AI001, (S)-2,3-dimethoxy-5,7,8,13,13b,14-hexahydroindolo [2′,3′:3,4]pyrido[1,2-b]isoquinoline] | 88.22 | 50.46 |  |  |  | 911 ± 130 | 728 ± 104 |  |  |  |  | 
8 | COc1cc2c(cc1O)[C@@H]1Cc3sc(CCC(C)C)cc3CN1CC2 [DS008, (S)-2-hydroxy-3-methoxy-10-(3-methylbutyl)-5,8,12, 12a-tetrahydro-6H-benzo[a]thieno[3,2-g]quinolizine] |  |  | 88.78 |  |  |  |  | 90.45 | 239 ± 14.7 | 79.5 ± 4.83 |  | 
9 | CCCCc1cc2c(s1)C[C@H]1c3cc(O)c(OC)cc3CCN1C2 [DS007, (S)-2-hydroxy-3-methoxy-10-n-butyl-5,8,12,12a-tetrahydro-6H-benzo[a]thieno[3,2-g]quinolizine] | 87.03 | 53.34 | 97.62 | 113 ± 13 | 62.2 ± 7.13 | 1080 ± 96.7 | 864 ± 77.3 | 99.53 | 76.3 ± 8.46 | 17.6 ± 1.95 |  | 
10 | COc1ccc2c(c1OC)CN1CCc3sccc3[C@@H]1C2 [AS022, (S)-8,9-dimethoxy-4,7,12,12a-tetrahydro-5H-benzo [g]thieno[3,2-a]quinolizine] | 6.60 | 32.31 | 69.25 |  |  |  |  | 5.21 |  |  |  | 
11 | COc1c(N)ccc2c1CN1CCc3sccc3[C@@H]1C2 [AS050, (S)-8-methoxy-9-amino-4,7,12,12a-tetrahydro-5H-benzo[g]thieno[3,2-a]quinolizine] | 49.26 | 74.25 | 99.02 | 1520 ± 357 | 685 ± 72.2 |  |  | 22.63 |  |  |  | 
12 | COc1ccc2c(c1OC)CN1CCc3sc(C)cc3[C@@H]1C2 [AS023, (S)-2-methyl-8,9-dimethoxy-4,7,12,12a-tetrahydro-5H-benzo[g]thieno[3,2-a]quinolizine] | 76.45 | 60.08 | 89.62 | 714 ± 15.7 | 357 ± 7.83 |  |  | 22.17 |  |  |  | 
13 | COc1c(NC(C)=O)ccc2c1CN1CCc3sccc3[C@@H]1C2 [AS051, (S)-8-methoxy-9-acetylamino-4,7,12,12a-tetrahydro-5H-benzo[g]thieno[3,2-a]quinolizine] | 33.90 | 46.59 | 76.38 |  |  |  |  | 1.29 |  |  |  | 
14 | COc1cc2c(cc1O)[C@@H]1Cc3sc(CCCCl)cc3CN1CC2 [DS015, (S)-2-hydroxy-3-methoxy-10-(3-chloropropyl)-5,8, 12,12a-tetrahydro-6H-benzo[a]thieno[3,2-g]quinolizine] | 92.24 |  | 96.10 | 144 ± 5.35 | 77 ± 2.85 | 148 ± 28.6 | 119 ± 23 | 97.19 | 55.1 ± 6.89 | 18.4 ± 2.3 |  | 
15 | COc1cc2c(cc1O)[C@@H]1Cc3sccc3CN1CC2 [DS001, (S)-2-hydroxy-3-methoxy-5,8,12,12a-tetrahydro-6H-benzo[a]thieno[3,2-g]quinolizine] |  |  |  | 172 ± 8.49 | 87 ± 4.3 |  |  |  | 396 ± 68.2 | 88 ± 15.2 |  | 
16 | COc1c(O)ccc2c1CN1CCc3sc(C)cc3[C@@H]1C2 [AS003, (S)-2-methyl-8-methoxy-9-hydroxy-4,7,12,12a-tetrahydro-5H-benzo[g]thieno[3,2-a]quinolizine] | 91.91 | 90.43 | 99.80 | 74 ± 4.3 | 37.9 ± 2.21 | 514 ± 111 | 405 ± 87.1 | 40.31 |  |  | 2230 ± 46.5 | 1070 ± 22.4
17 | CCc1cc2c(s1)CCN1Cc3c(ccc(O)c3OC)C[C@@H]21 [AS005, (S)-2-ethyl-8-methoxy-9-hydroxy-4,7,12,12a-tetrahydro-5H-benzo[g]thieno[3,2-a]quinolizine] | 98.58 | 76.11 | 98.23 | 86.8 ± 11.3 | 47.6 ± 6.18 | 162 ± 3.8 | 130 ± 3.03 | 62.98 |  |  |  | 
18 | COc1ccc(OC)c2c1C[C@H]1c3cc(C)sc3CCN1C2 [AS032, (S)-2-methyl-8,11-dimethoxy-4,7,12,12a-tetrahydro-5H-benzo[g]thieno[3,2-a]quinolizine] | 74.09 | 30.01 | 96.00 | 416 ± 26.9 | 159 ± 28.9 |  |  | 13.75 |  |  |  | 
